How the values were obtained:
eczema = assay: Earlier use of urea on eczema symptoms of type 2 diabetic patient; type: in vivo, human; conditions: high blood-sugar level, 16 years ago
psoriasis = assay: Comparison of performance of OTCs, zinc oxide and copper lactate on silvery patches L6-L8; type: in vivo, human
Description: As mentioned above, the presence and growth of L6, L7 and L8 lesions gave me an opportunity to compare the performance of my invention against the readily available OTCs. As mentioned earlier, coal tar, sea salts and several combinations of acids are used for treatment of psoriasis and eczema.
From June 1966 to March 1996, The U. S. Department of Interior (DOI) employed me as a research engineer. During the course of my employment with DOI, I had conducted research in more than 100 coal and salt mines. I have a sound knowledge of the properties of coal and salts. The following comments are based on my experimentations and my in-depth knowledge of the physical and chemical properties of these minerals. Furthermore, based on my own knowledge and past experience with the OTCs, I became suspicious of the validity of the claims made by the manufactures of OTCs containing coal tar and sea salts. Therefore, I designed a simple experimental procedure to compare effectiveness of readily available OTCs to treat psoriasis. Experimental procedure: Before each topical application, each of the three silvery patches was washed with warm soapy water and towel dried. Each OTC product was gently massaged onto all three silvery patches three times daily. Topical applications were made in accordance with the drug manufacturer's recommendations. At the end of four hours, physical observations were made. Silvery patches were again washed and dried and medication was applied again. Each product was tested for a period of four days. After completion of one test series and start of another, silvery patches were left alone for a period of four days to avoid carryover affects from one product to another.
Immune suppressing medications such as Elidel and Protopic and all other prescription drugs known to potentially contribute to cancer were excluded from this test series. Prescription phototherapy and systemics having different course of action and generally, they are not recommended for mild cases of psoriasis. Therefore, these medications were beyond the scope of this study.
Therefore, based on prior knowledge, for extension of this study, an ointment containing 40% zinc oxide was selected for testing.
8. Copper Lactate: Even though during this testing phase, no bleeding points were developed, it was still decided to explore the impact of copper lactate alone on psoriatic lesions. Copper lactate for this test series was produced by reacting yogurt in a copper container rather than a brass utensil.

[1] = after ten days of daily applications

With NC(N)=O [Urea] the “treatment of dry, flaky, cracked, and bleeding symptoms of eczema” value (eczema) was “totally ineffective”.
CC(O)C(=O)[O-].CC(O)C(=O)[O-].[Cu+2] (stereo not drawn) [copper lactate] was tested, and the “reduction in psoriatic lesions” value (psoriasis; after seven days of topical applications) was 20%, the “red thickened skin of the lesion whose silvery patch came off” value (psoriasis; [1]) was “completely disappeared” and the “reduction in size of remaining two silvery lesions” value (psoriasis; [1]) was 20%. The “silvery patch of one of the psoriatic lesions” value (psoriasis; [1]) was “flaked off”, the swelling (psoriasis; after the first day of applications, no bleeding points) was “significant reduction” and the pain and swelling (psoriasis; after three days of applications) was “completely gone”. For the same compound, the silvery scales (psoriasis; after three days of topical application) was “fell off” and the “silvery patches on the remaining two lesions” value (psoriasis; further topical applications) was “have not eliminated”.

— patent US20070031509A1, “Breakthrough to cure psoriasis, psoriatic arthritis and treatment of other unrelated skin disorders, and external rectal and genital itching” (priority 2005, published 2007)
